This passage reports Ki results from patent US8859534B2, “2-carboxamide-7-piperazinyl-benzofuran derivatives” (AstraZeneca AB, priority 2009, dated 2014).

The target in one assay is 5-HT1B receptor (Homo sapiens (Human), UniProt P28222). As to the kind of experiment: 5-HT1B receptor competition binding assay (SPA, [3H]-GR125743). As to conditions: membranes of CHO cells expressing 5-HT1B receptors; radioligand [3H]-GR125743 0.15-0.2 nM. The source says:
(§1) Assays that were used to measure affinity of the compounds of the present invention for 5-HT1A and 5-HT1B receptors are described in J. Recept Signal Transduct. Res. 22:483-495 (2002) and Naunyn-Schmiedeberg's Arch Pharmacol. 356:328-334 (1997) and incorporated by reference herein. These assays were be used with some modifications:
(§2) For the binding assay stably transfected chinese hamster ovary (CHO) cell lines expressing 5-HT1A receptors or 5-HT1B receptors were harvested by centrifugation at 300×g for 10 min and resuspended in 10 mM Tris-HCl, 5 mM EDTA at pH 7.4. The cells were pooled, recentrifuged and resuspended before homogenisation using a Dounce homogeniser (“type B”). Cell membranes were centrifuged at 48 000×g for 10 min and then resuspended in harvesting buffer using an Ultra-Turrax T8 (IKA Labortechnik, Germany), aliquots were stored frozen in −70° C.
Frozen membrane preparations were thawed, homogenized with an Ultra-Turrax and mixed with SPA beads (YSI coated WGA, GE Healthcare/Amersham, Buckinghamshire, UK) in assay buffer containing 50 mM Tris-Base, 4 mM MgCl2, 4 mM CaCl2 (only 5-HT1B), 1 mM EDTA, and adjusted to pH 7.4 with HCl. The beads/membrane solution, final concentration 100 pM receptors for 5-HT1A, 300 pM receptors for 5-HT1B and 0.5 mg SPA beads/well, was pre-incubated in room temperature with stirring for 30-60 min. […] Five (log interval, 10 μM to 1 nM, final concentration) or ten serial dilutions (½-log interval, 10 μM to 0.32 nM, final concentration) of compounds were prepared in DMSO from 10 mM stock solutions. The binding assays were performed in 384-well plates in a final volume of 90 μL/well with the following additions: 9 μL binding buffer; 1 μL compound/DMSO/nonspecific; 20 μL radioligand; and 60 μL beads/membrane mixture. Non-specific binding was defined by using 10 μM WAY100635 for 5-HT1A and 10 μM Methiothepin for 5-HT1B. The assay plates were incubated for 4 hours where after the plates are counted in a Wallac 1450 Microbeta Trilux counter (PerkinElmer LifeScience, US) or similar. Data from the experiments were analyzed using a four parameter logistic equation as follows: Y=Bottom+(Top-Bottom)/1+10^(LogEC50-X)nH.
• Jerning E., Rosqvist S., Mohell N. (2002) NAD-299 antagonises 5-HT-stimulated and Spiperone-inhibited [^35S]GTPγS binding in cloned 5-HT1A receptors. J Recept Signal Transduct Res 22:483-495. • Doménech T., Beleta J., Palacios J. M. (1997) Characterization of human serotonin 1D and 1B receptors using [^3H]-GR-125743, a novel radiolabelled serotonin 5HT1D/1B receptor antagonist. Naunyn-Schmiedeberg's Arch Pharmacol 356:328-334.

Another assay addresses 5-HT1A receptor (Homo sapiens (Human), UniProt P08908). As to the kind of experiment: 5-HT1A receptor competition binding assay (SPA, [3H]-8-OH-DPAT). As to conditions: membranes of CHO cells expressing 5-HT1A receptors; radioligand [3H]-8-OH-DPAT 0.15-0.2 nM.
Source text: as §1, §2
Frozen membrane preparations were thawed, homogenized with an Ultra-Turrax and mixed with SPA beads (YSI coated WGA, GE Healthcare/Amersham, Buckinghamshire, UK) in assay buffer containing 50 mM Tris-Base, 4 mM MgCl2, 4 mM CaCl2 (only 5-HT1B), 1 mM EDTA, and adjusted to pH 7.4 with HCl. […] The binding assays were performed in 384-well plates in a final volume of 90 μL/well with the following additions: 9 μL binding buffer; 1 μL compound/DMSO/nonspecific; 20 μL radioligand; and 60 μL beads/membrane mixture. Non-specific binding was defined by using 10 μM WAY100635 for 5-HT1A and 10 μM Methiothepin for 5-HT1B. The assay plates were incubated for 4 hours where after the plates are counted in a Wallac 1450 Microbeta Trilux counter (PerkinElmer LifeScience, US) or similar. Data from the experiments were analyzed using a four parameter logistic equation as follows: Y=Bottom+(Top-Bottom)/1+10^(LogEC50-X)nH.

SMILES strings stand for the structures.

5-HT1A receptor, sequence (P08908 whole entry): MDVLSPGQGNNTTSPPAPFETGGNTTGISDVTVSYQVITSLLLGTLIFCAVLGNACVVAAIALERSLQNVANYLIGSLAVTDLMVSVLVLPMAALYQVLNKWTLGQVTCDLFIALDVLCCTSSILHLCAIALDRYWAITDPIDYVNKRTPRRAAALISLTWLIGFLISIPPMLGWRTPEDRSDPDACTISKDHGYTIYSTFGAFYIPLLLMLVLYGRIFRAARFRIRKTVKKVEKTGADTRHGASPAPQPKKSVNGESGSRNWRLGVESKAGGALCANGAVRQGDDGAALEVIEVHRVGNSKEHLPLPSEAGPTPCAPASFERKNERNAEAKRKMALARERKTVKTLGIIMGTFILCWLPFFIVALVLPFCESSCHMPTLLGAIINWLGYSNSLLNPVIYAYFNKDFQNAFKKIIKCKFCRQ
5-HT1B receptor, sequence (P28222 whole entry): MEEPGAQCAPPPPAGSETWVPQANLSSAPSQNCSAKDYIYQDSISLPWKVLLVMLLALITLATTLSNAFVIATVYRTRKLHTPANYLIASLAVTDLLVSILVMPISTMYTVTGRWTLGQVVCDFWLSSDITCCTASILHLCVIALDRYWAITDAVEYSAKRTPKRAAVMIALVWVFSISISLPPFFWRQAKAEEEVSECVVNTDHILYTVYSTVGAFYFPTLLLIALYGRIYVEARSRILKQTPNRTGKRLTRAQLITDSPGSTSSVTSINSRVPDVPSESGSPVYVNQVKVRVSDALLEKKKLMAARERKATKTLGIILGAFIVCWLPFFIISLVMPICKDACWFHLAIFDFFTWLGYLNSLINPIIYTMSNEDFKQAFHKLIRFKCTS

What is called Ki is the equilibrium dissociation constant of an inhibitor or competing ligand from its target. Lower therefore signals tighter binding. In the case of `CN(C)C(=O)c1cc2cccc(N3CCN(CCc4ccc(F)cn4)CC3)c2o1` [Example 47, 7-(4-(2-(5-Fluoropyridin-2-yl)ethyl)piperazin-1-yl)-N,N-dimethylbenzofuran-2-carboxamide], the Ki at 5-HT1B receptor was found to be 19 nM; on 5-HT1A receptor, 0.22 nM.

As for `CN(C)C(=O)c1cc2cc(F)cc(N3CCN(CCc4ccccn4)CC3)c2o1` [Example 50, 5-Fluoro-N,N-dimethyl-7-(4-(2-(pyridin-2-yl)ethyl)piperazin-1-yl)benzofuran-2-carboxamide], the Ki at 5-HT1B receptor came out at 8.2 nM; at 5-HT1A receptor it was 0.43 nM.

Regarding `CC(=O)N1CCc2cc(CCN3CCN(c4cc(F)cc5cc(C(=O)N(C)C)oc45)CC3)ccc21` [Example 51, 7-(4-(2-(1-Acetylindolin-5-yl)ethyl)piperazin-1-yl)-5-fluoro-N,N-dimethylbenzofuran-2-carboxamide], the Ki on 5-HT1B receptor amounted to 5 nM; at 5-HT1A receptor it was 0.23 nM.

On to `COc1cc(N2CCN(CCc3ccccn3)CC2)c2oc(C(=O)N(C)C)cc2c1` [Example 52, 5-Methoxy-N,N-dimethyl-7-(4-(2-(pyridin-2-yl)ethyl)piperazin-1-yl)benzofuran-2-carboxamide], for which the Ki came out at 140 nM at 5-HT1B receptor and 2.8 nM on 5-HT1A receptor.

`CN(C)C(=O)c1cc2c(Br)ccc(N3CCN(CCc4ccccn4)CC3)c2o1` [Example 53, 4-Bromo-N,N-dimethyl-7-(4-(2-(pyridin-2-yl)ethyl)piperazin-1-yl)benzofuran-2-carboxamide]: the values for the Ki on 5-HT1B receptor and at 5-HT1A receptor were 11 nM and 0.35 nM, respectively.
